These molecules were tested against T1, KRAS G12C 1-169, his-tagged protein, GDP-loaded (Homo sapiens, UniProt P01116, G12C) (assay: Biochemical assay: covalent modification of KRAS G12C measured by mass spectrometry (RapidFire/TOF or Q-Exactive)). Settings: covalent binding to (modification of) KRAS G12C after a ten minute incubation period.
T1 construct: KRAS G12C 1-169, his-tagged protein, GDP-loaded
Assay type: binding
Protocol: Test compounds were prepared as 10 mM stock solutions in DMSO (Fisher cat #BP-231-100). KRAS G12C 1-169, his-tagged protein, GDP-loaded is diluted to 2 μM or 0.5 μM in buffer (20 mM Hepes, 150 mM NaCl, 1 mM MgCl2). Compounds were tested for activity as follows:
Compounds were diluted to 50× final test concentration in DMSO in 96-well storage plates. Compound stock solutions were vortexed before use and observed carefully for any sign of precipitation. Dilutions are as follow: • For 100 μM final compound concentration, compounds were diluted to 5000 μM (5 μL 10 mM compound stock+5 μL DMSO and mixed well by pipetting. • For 30 μM final compound concentration, compounds were diluted to 1500 μM (3 μL 10 mM compound stock+17 μL DMSO) and mixed well by pipetting. • For 10 μM final compound concentration, compounds were diluted to 500 μM (2 μL 10 mM compound stock+38 μL DMSO) and mixed well by pipetting. 49 μL of the stock protein solution was added to each well of a 96-well PCR plate (Fisher cat #1423027). 1 μL of the diluted 50× compounds were added to appropriate wells in the PCR plate using 12-channel pipettor. Reactions were mixed carefully and thoroughly by pipetting up/down with a 200 μL multi-channel pipettor. The plate was sealed well with aluminum plate seal, and stored in drawer at room temperature for 10 minutes, 30 minutes, 2 hours or 24 hours. 5 μL of 2% formic acid (Fisher cat #A117) in de-ionized H2O was then added to each well followed by mixing with a pipette. The plate was then resealed with aluminum seal and stored on dry ice until analyzed as described below.
The above described assays were analyzed by mass spectrometry according to one of the following two procedures:
The MS instrument was set to positive polarity, 2 GHz resolution, and low mass (1700) mode and allowed to equilibrate for 30 minutes. The instrument was then calibrated, switched to acquisition mode and the appropriate method loaded.
After another 30 minute equilibration time, a blank batch (i.e., buffer) was run to ensure equipment is operating properly. The samples were thawed at 37° C. for 10 minutes, briefly centrifuged, and transfer to the bench top. Wells A1 and H12 were spiked with 1 μL 500 μM internal standard peptide, and the plates centrifuged at 2000×g for 5 minutes. The method was then run and masses of each individual well recorded.
The masses (for which integration data is desired) for each well were pasted into the platemap and exported from the analysis. Masses for the internal standards were exported as well. The data at 50 ppm was extracted for the +19 charge state, and identity of well A1 was assigned using the internal standard spike and integrated. Peak data was exported as a TOF list and the above steps were repeated individually, for the +20, 21, 22, 23, 24, and 25 charge states.
The masses and peak intensities of KRAS G12C protein species were measured using a Dionex RSLCnano system (Thermo Scientific) connected to a Q Exactive Plus mass spectrometer (Thermo Scientific).
[…] of sample was each loaded onto a Aeris™ 3.6 μm WIDEPORE C4 200 Å, LC Column 50×2.1 mm column maintained at 40° C. at a flow rate of 600 μL/min with 20% Solvent A (0.1% formic acid in H2O) and […] (0.1% formic acid in acetonitrile). The liquid chromatography conditions were 20% solvent B for 1 minute, 20% to 60% solvent B for 1.5 minutes, 60% to 90% solvent for 0.5 minute, 90% solvent B for 0.2 minute, 90% to 20% solvent B for 0.2 minute, and then equilibrated for 1.6 minutes before the following sample injection. The flow rate was maintained at 600 μL/min throughout the sample analysis.
The mass spectrometer was operated in profile mode at a resolution of 17500, 5 microscans, using 50 msec max injection time and an AGC target of 1×10^6, and a full mass range from 800-1850 m/z was recorded. The HCD trapping gas was optimized for maximum sensitivity for intact proteins. […]

| Structure (SMILES) | Binding % |
| --- | --- |
| C=CC(=O)N1C[C@H](C)N(c2nc(N3CC(N(C)C)C3)nc3c(F)c(-c4c(C)ccc5nn(C)cc45)c(Cl)cc23)C[C@H]1C (atropisomer, axis not shown) [Compound 88, 1-((2R,5S)-4-((R)-6-chloro-7-(2,5-dimethyl-2H-indazol-4-yl)-2-(3-(dimethylamino)azetidin-1-yl)-8-fluoroquinazolin-4-yl)-2,5-dimethylpiperazin-1-yl)prop-2-en-1-one] | ++ (++ indicates binding activity from 50 to 80%) |
| C=CC(=O)N1C[C@H](C)N(c2nc(N3CC(N(C)C)C3)nc3c(F)c(-c4c(C)ccc5[nH]nc(N)c45)c(Cl)cc23)C[C@H]1C (atropisomer, axis not shown) [Compound 89, 1-((2R,5S)-4-((R)-7-(3-amino-5-methyl-1H-indazol-4-yl)-6-chloro-2-(3-(dimethylamino)azetidin-1-yl)-8-fluoroquinazolin-4-yl)-2,5-dimethylpiperazin-1-yl)prop-2-en-1-one] | +++ (+++ indicates binding activity greater than 80%) |
| C=CC(=O)N1C[C@H](C)N(c2nc(N3CC(N(C)C)C3)nc3c(F)c(-c4c(C)ccc5[nH]nc(N)c45)c(Cl)cc23)C[C@H]1C (atropisomer, axis not shown) [Compound 90, 1-((2R,5S)-4-((S)-7-(3-amino-5-methyl-1H-indazol-4-yl)-6-chloro-2-(3-(dimethylamino)azetidin-1-yl)-8-fluoroquinazolin-4-yl)-2,5-dimethylpiperazin-1-yl)prop-2-en-1-one] | + (+ indicates binding activity greater than 0% and up to 50%) |
| C=CC(=O)N1C[C@H](C)N(c2nc(N3CC(N(C)C)C3)nc3c(F)c(-c4c(C)ccc5onc(N)c45)c(Cl)cc23)C[C@H]1C (atropisomer, axis not shown) [Compound 96, 1-((2R,5S)-4-((S)-7-(3-amino-5-methylbenzo[d]isoxazol-4-yl)-6-chloro-2-(3-(dimethylamino)azetidin-1-yl)-8-fluoroquinazolin-4-yl)-2,5-dimethylpiperazin-1-yl)prop-2-en-1-one] | + (+ indicates binding activity greater than 0% and up to 50%) |
| C=CC(=O)N1C[C@H](C)N(c2nc(N3CC(N(C)C)C3)nc3c(F)c(-c4c(C)ccc5[nH]nc(C)c45)c(Cl)cc23)C[C@H]1C (atropisomer, axis not shown) [Compound 97, 1-((2R,5S)-4-((S)-6-chloro-7-(3,5-dimethyl-1H-indazol-4-yl)-2-(3-(dimethylamino)azetidin-1-yl)-8-fluoroquinazolin-4-yl)-2,5-dimethylpiperazin-1-yl)prop-2-en-1-one] | + (+ indicates binding activity greater than 0% and up to 50%) |
| C=CC(=O)N1C[C@H](C)N(c2nc(N3CC(N(C)C)C3)nc3c(F)c(-c4c(C)ccc5[nH]nc(C)c45)c(Cl)cc23)C[C@H]1C (atropisomer, axis not shown) [Compound 98, 1-((2R,5S)-4-((R)-6-chloro-7-(3,5-dimethyl-1H-indazol-4-yl)-2-(3-(dimethylamino)azetidin-1-yl)-8-fluoroquinazolin-4-yl)-2,5-dimethylpiperazin-1-yl)prop-2-en-1-one] | +++ (+++ indicates binding activity greater than 80%) |
| C=CC(=O)N1CCN(c2nc(N3CC(N(C)C)C3)nc3c(F)c(-c4c(C)ccc5[nH]nc(C6CC6)c45)c(Cl)cc23)C[C@H]1C (atropisomer, axis not shown) [Compound 101, 1-((R)-4-((S)-6-chloro-7-(3-cyclopropyl-5-methyl-1H-indazol-4-yl)-2-(3-(dimethylamino)azetidin-1-yl)-8-fluoroquinazolin-4-yl)-2-methylpiperazin-1-yl)prop-2-en-1-one] | + (+ indicates binding activity greater than 0% and up to 50%) |
| C=CC(=O)N1CCN(c2nc(N3CC(N(C)C)C3)nc3c(F)c(-c4c(C)ccc5[nH]nc(C6CC6)c45)c(Cl)cc23)C[C@H]1C (atropisomer, axis not shown) [Compound 102, 1-((R)-4-((R)-6-chloro-7-(3-cyclopropyl-5-methyl-1H-indazol-4-yl)-2-(3-(dimethylamino)azetidin-1-yl)-8-fluoroquinazolin-4-yl)-2-methylpiperazin-1-yl)prop-2-en-1-one] | +++ (+++ indicates binding activity greater than 80%) |
| C=CC(=O)N1CCN(c2nc(N3CC(N(C)C)C3)nc3c(F)c(-c4c(C)ccc5[nH]nc(C6CC6)c45)c(Cl)cc23)CC1 (atropisomer, axis not shown) [Compound 103, (S)-1-(4-(6-chloro-7-(3-cyclopropyl-5-methyl-1H-indazol-4-yl)-2-(3-(dimethylamino)azetidin-1-yl)-8-fluoroquinazolin-4-yl)piperazin-1-yl)prop-2-en-1-one] | + (+ indicates binding activity greater than 0% and up to 50%) |
| C=CC(=O)N1CCN(c2nc(N3CC(N(C)C)C3)nc3c(F)c(-c4c(C)ccc5[nH]nc(C6CC6)c45)c(Cl)cc23)CC1 (atropisomer, axis not shown) [Compound 104, (R)-1-(4-(6-chloro-7-(3-cyclopropyl-5-methyl-1H-indazol-4-yl)-2-(3-(dimethylamino)azetidin-1-yl)-8-fluoroquinazolin-4-yl)piperazin-1-yl)prop-2-en-1-one] | +++ (+++ indicates binding activity greater than 80%) |
| C=CC(=O)N1C[C@H](C)N(c2nc(N3CC(N(C)C)C3)nc3c(F)c(-c4c(C)ccc5cn(C)nc45)c(Cl)cc23)C[C@H]1C (atropisomer, axis not shown) [Compound 105, 1-((2R,5S)-4-((R)-6-chloro-7-(2,6-dimethyl-2H-indazol-7-yl)-2-(3-(dimethylamino)azetidin-1-yl)-8-fluoroquinazolin-4-yl)-2,5-dimethylpiperazin-1-yl)prop-2-en-1-one] | ++ (++ indicates binding activity from 50 to 80%) |
| C=CC(=O)N1C[C@H](C)N(c2nc(NC3CCN(C4CC4)CC3)nc3c(F)c(-c4c(C)ccc5[nH]nc(C6CC6)c45)c(Cl)cc23)C[C@H]1C (atropisomer, axis not shown) [Compound 110, 1-((2R,5S)-4-((S)-6-chloro-7-(3-cyclopropyl-5-methyl-1H-indazol-4-yl)-2-(1-cyclopropylpiperidin-4-ylamino)-8-fluoroquinazolin-4-yl)-2,5-dimethylpiperazin-1-yl)prop-2-en-1-one] | + (+ indicates binding activity greater than 0% and up to 50%) |
| C=CC(=O)N1C[C@H](C)N(c2nc(NC3CCN(C4CC4)CC3)nc3c(F)c(-c4c(C)ccc5[nH]nc(C6CC6)c45)c(Cl)cc23)C[C@H]1C (atropisomer, axis not shown) [Compound 111, 1-((2R,5S)-4-((R)-6-chloro-7-(3-cyclopropyl-5-methyl-1H-indazol-4-yl)-2-(1-cyclopropylpiperidin-4-ylamino)-8-fluoroquinazolin-4-yl)-2,5-dimethylpiperazin-1-yl)prop-2-en-1-one] | ++ (++ indicates binding activity from 50 to 80%) |
| C=CC(=O)N1C[C@H](C)N(c2nc(OCCN3CCOCC3)nc3c(F)c(-c4c(C)ccc5[nH]nc(C6CC6)c45)c(Cl)cc23)C[C@H]1C (atropisomer, axis not shown) [Compound 112, 1-((2R,5S)-4-((S)-6-chloro-7-(3-cyclopropyl-5-methyl-1H-indazol-4-yl)-8-fluoro-2-(2-morpholinoethoxy)quina-zolin-4-yl)-2,5-dimethylpiperazin-1-yl)prop-2-en-1-one] | + (+ indicates binding activity greater than 0% and up to 50%) |

Reference: US11377441B2, “Covalent inhibitors of KRAS” (Araxes Pharma LLC, priority 2017, dated 2022)
